The test system of series [1] is phosphorylation of a 46/50 kDa-band in membranes of human thrombocytes. The series is described as follows: cGMP-modulated phosphorylation of a 46/50 kDa band in membranes of human thrombocytes. It counts as biochemical. The method, then: (§1) Isolation of cGK I from bovine lung and of cAK II from bovine heart is performed as has been already published (Walter et al., J. Biol. Chem., 255, 3757-3762 (1980)). Protein kinase activity is determined according to the method of Roskoski (Methods Enzymol., 99, 3-6 (1983)). In vitro data on membranes of human thrombocytes are obtained as has already been described by Halbrugge et al. (Eur. J. Biochem., 185, 41-50, (1989)).
(§2) Compounds with extraordinary good membrane permeability are tested in vivo with intact human thrombocytes according to Halbrugge et al. CJ. Biol. Chem., 265, 3088-3093 (1990)).

The next series in a line: physchem. Particulars: reversed-phase hplc.
Series [2] deals with T1, cGMP-dependent protein kinases (Bos taurus, UniProt P00516).
T1 construct: Isolation of cGK I from bovine lung; from tissue; host or cells: bovine lung
T1 sequence (P00516 2-671 limits assumed): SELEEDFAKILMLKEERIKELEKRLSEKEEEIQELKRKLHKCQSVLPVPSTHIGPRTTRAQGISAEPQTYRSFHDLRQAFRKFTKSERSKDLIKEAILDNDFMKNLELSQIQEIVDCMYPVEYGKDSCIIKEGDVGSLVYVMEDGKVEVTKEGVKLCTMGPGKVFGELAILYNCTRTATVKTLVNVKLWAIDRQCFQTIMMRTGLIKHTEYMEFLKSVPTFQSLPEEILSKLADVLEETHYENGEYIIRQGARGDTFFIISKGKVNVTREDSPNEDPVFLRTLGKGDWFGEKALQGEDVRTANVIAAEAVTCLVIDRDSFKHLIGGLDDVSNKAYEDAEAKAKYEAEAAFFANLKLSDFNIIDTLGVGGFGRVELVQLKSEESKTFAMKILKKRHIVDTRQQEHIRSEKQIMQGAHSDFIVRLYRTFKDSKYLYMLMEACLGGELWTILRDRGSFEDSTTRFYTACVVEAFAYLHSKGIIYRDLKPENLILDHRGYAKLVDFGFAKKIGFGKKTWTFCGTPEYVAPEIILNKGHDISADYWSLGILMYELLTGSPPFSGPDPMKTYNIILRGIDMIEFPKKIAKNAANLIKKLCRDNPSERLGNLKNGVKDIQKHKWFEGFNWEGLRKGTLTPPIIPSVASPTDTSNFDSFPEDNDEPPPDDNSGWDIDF
The series is described as follows: Inhibition/activation of cGMP-dependent protein kinase (cGK). It is filed as biochemical, bovine. The method, then: as §1

In series [3] the test system is cGMP-dependent phosphorylation of three proteins of the masses 46, 50 and 130 kDa. The experiment in a line: cGMP-dependent phosphorylation of three proteins of 46, 50 and 130 kDa.
The subject of a further series is perfused aorta muscle. The experiment in a line: SIN 1-stimulated relaxation in perfused aorta muscle.
Series [4] has as its system cGMP signal transduction pathway. The experiment in a line: Selective block of the cGMP signal transduction pathway. Particulars: selectivity over cAMP-mediated effects.
Series [5] in a line: Cell membrane permeability. It is filed as in vitro ADME.
Series [6] relates to cGMP-inhibited phosphodieserases (cGI-PDE). The series is described as follows: Inhibition of cGMP-inhibited phosphodiesterases (cGI-PDE). It is filed as biochemical.
A further series addresses T2, cAK II (Bos taurus, UniProt P00515).
T2 construct: of cAK II from bovine heart; from tissue; host or cells: bovine heart
The experiment in a line: Activation of cAK II. It is filed as biochemical, bovine. Particulars: at high concentrations. The method, then: as §1

In series [7] the test system is cGMP-dependent phosphorylation in intact human thrombocytes. The experiment in a line: cGMP-dependent phosphorylation in intact human thrombocytes (in vivo). It is filed as cell-based. The method, then:
as §2

The test system of series [8] is cAMP-dependent phosphorylation of a 22- and a 240 kDa-band. The series is described as follows: cAMP-dependent phosphorylation of 22 and 240 kDa bands in membranes of human thrombocytes. It is filed as biochemical. The method, then:
as §1, §2

A further series has as its target T3, cGK I (Bos taurus, UniProt P00516).
T3 construct: Isolation of cGK I from bovine lung; from tissue; host or cells: bovine lung
T3 sequence (P00516 1-671): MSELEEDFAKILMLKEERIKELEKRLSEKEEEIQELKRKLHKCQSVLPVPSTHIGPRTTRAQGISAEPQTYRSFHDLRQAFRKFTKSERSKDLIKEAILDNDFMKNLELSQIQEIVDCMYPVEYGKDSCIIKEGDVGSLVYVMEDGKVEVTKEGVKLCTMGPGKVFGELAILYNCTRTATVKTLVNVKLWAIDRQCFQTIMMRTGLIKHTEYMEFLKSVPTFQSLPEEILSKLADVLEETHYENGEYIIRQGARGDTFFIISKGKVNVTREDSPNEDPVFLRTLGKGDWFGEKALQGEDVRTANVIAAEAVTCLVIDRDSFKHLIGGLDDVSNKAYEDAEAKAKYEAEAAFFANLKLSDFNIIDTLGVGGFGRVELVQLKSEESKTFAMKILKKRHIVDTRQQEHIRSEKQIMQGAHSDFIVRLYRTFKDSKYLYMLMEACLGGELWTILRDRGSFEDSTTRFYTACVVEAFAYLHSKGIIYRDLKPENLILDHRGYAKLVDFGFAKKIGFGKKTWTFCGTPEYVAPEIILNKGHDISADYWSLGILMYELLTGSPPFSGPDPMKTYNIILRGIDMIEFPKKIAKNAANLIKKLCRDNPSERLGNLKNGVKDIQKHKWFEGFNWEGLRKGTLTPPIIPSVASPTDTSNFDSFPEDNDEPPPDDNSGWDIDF
The series is described as follows: Inhibition of isolated cGK I. It is filed as biochemical, bovine. The method, then:
as §1

Series [9] relates to cAMP-dependent protein kinases type I (cAK I). The following applies: Botelho et al. 1988; cited from earlier work.
The next series deals with cAK. The following applies: cited from earlier work.
Series [10] deals with cAMP-dependent protein kinases type II (cAK II). The following applies: Botelho et al. 1988; cited from earlier work.
Series [11] addresses T1, cGMP-dependent protein kinases. Particulars: background literature (Butt et al. 1990); cited from earlier work.
For series [12] the following is noted: reversed-phase HPLC; has been reported; cited from earlier work.

pKi: −log10 of the molar value.

T2 sequence (P00515 2-401 limits assumed): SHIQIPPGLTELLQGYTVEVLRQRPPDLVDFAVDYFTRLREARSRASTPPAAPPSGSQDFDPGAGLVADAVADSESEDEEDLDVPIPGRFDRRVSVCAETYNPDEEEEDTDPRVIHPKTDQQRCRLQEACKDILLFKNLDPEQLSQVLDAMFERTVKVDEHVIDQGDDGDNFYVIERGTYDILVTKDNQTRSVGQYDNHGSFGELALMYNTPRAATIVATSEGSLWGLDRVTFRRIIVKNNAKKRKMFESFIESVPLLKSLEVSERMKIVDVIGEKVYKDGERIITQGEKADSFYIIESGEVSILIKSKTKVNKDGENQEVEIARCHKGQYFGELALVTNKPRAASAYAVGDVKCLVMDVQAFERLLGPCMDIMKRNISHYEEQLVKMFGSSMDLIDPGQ

Broadly, the chromatographic logP is a lipophilicity value derived from retention on a column. A word on the pKi: it is the negative decadic logarithm of the Ki, by convention in mol/L. `O=c1c2nc(Br)n([C@@H]3O[C@@H]4CO[P@@](O)(=S)O[C@H]4[C@H]3O)c2nc2[nH]c(-c3ccccc3)cn12` [RP -8-Br-PET-cGMPS, Cyclic β-phenyl-1,N^2-etheno-8-bromoguanosine-3',5'-monophosphorothioate, RP -diastereomer]: the “effectivity at thrombocyte membranes, factor over RP -8-pCPT-cGMPS” value in [1] (thrombocyte membranes, relative to RP -8-pCPT-cGMPS) is recorded as 5-10. The compound further yielded a chromatographic logP in “physchem” of 3.22. For the same compound, the “type of inhibition of cGMP-dependent protein kinases” value in series [2] is reported as “competitive inhibitor”. Also, the pKi in [2] (cGMP-dependent protein kinases, competitive inhibitor, read-out: inhibition constant Ki) is 7.52. For the same compound, the “cGMP-dependent phosphorylation of three proteins” value in series [3] is recorded as “inhibited”. Moreover, in the series on perfused aorta muscle, the “SIN 1-stimulated relaxation” value is recorded as “inhibited”. Besides, the “block of cGMP signal transduction pathway” value in series [4] is recorded as “blocks selectively the cGMP signal transduction pathway without affecting cAMP-mediated effects”.
With `Nc1nc2c(nc(Sc3ccc(Cl)cc3)n2[C@@H]2O[C@@H]3CO[P@@](O)(=S)O[C@H]3[C@H]2O)c(=O)[nH]1` [RP -8-pCPT-cGMPS, Cyclic 8-(4-chlorophenylthio)-guanosine-3',5'-monophosphorothioate, RP -diastereomer], the cell membrane permeability result in [5] is given as “excellent cell membrane permeability”. For the same compound, the “inhibition of cGI-PDE” value in [6] is on record as “poor inhibitor”. The “phosphorylation of a 46/50 kDa-band” value in series [1] (membranes of human thrombocytes) is listed as “inhibits the phosphorylation”. For the same compound, at cAK II, the “agonism for cAK II” value is given as “weakly partial agonist”. This compound also displayed a chromatographic logP in “physchem” of 2.82. Further, the “cGMP-dependent (cGMP-mediated) phosphorylation” value in series [7] was “inhibits the cGMP-dependent phosphorylation even in intact human thrombocytes”. Moreover, the “cAMP-dependent phosphorylation of a 22- and a 240 kDa-band” value in series [8] is recorded as “not disturbed”. Moreover, on cGK I (isolated cGK I), the “type of inhibition of isolated cGK I” value was “competitive inhibitor”. Besides, the negative logarithm of the Ki (pKi) at cGK I (read-out: inhibition constant Ki) is 6.15.
As to `O=c1c2ncn([C@@H]3O[C@@H]4CO[P@@](O)(=S)O[C@H]4[C@H]3O)c2[nH]c2nc(-c3ccccc3)cn12` [RP -PET-cGMPS, Cyclic β-phenyl-1,N^2-ethenoguanosine-3',5'-monophosphorothioate, RP -diastereomer], in the series “physchem”, the chromatographic logP was 2.81.
As to `Nc1ncnc2c1ncn2[C@@H]1O[C@@H]2CO[P@@](O)(=S)O[C@H]2[C@H]1O` [RP -cAMPS, adenosine-3',5'-monophosphorothioate], in series [9], the “inhibition of cAK I” value was “competitive inhibitor”. In the series on cAK (Botelho et al. 1988), the cAMP antagonism result is “antagonist of cAMP”. In addition, in series [10], the “inhibition of cAK II” value is listed as “competitive inhibitor”.
For the compound `Nc1nc2c(ncn2[C@@H]2O[C@@H]3CO[P@@](O)(=S)O[C@H]3[C@H]2O)c(=O)[nH]1` [RP -cGMPS, RP -Guanosine-3',5'-monophosphorothioate], in the series on cAK (background literature), the “inhibition/agonism of cAK” value was “inhibits cAK as well”. For the same compound, the “inhibitory properties / specificity for cGK” value in series [11] is on record as “lacks the required specificity for cGMP-dependent protein kinase (cGK)”.
`Nc1nc2c(nc(Sc3ccc(Cl)cc3)n2[C@@H]2O[C@@H]3CO[P@](O)(=S)O[C@H]3[C@H]2O)c(=O)[nH]1` [SP -8-pCPT-cGMPS, Cyclic 8-(4-chlorophenylthio)-guanosine-3',5'-monophosphorothioate, SP -diastereomer] showed a chromatographic logP in the series “physchem” of 2.84. For the same compound, in series [7], the “cGMP-dependent (cGMP-mediated) phosphorylation” value is “activator”. For the same compound, the “activation of isolated cGK” value in series [2] (isolated cGK) is on record as “activator”.
`O=c1c2ncn([C@@H]3O[C@@H]4CO[P@](O)(=S)O[C@H]4[C@H]3O)c2[nH]c2nc(-c3ccccc3)cn12` [SP -PET-cGMPS, Cyclic β-phenyl-1,N^2-ethenoguanosine-3',5'-monophosphorothioate, SP -diastereomer] returned a chromatographic logP in the series “physchem” of 2.83.
Turning to `Nc1nc2c(ncn2[C@@H]2O[C@@H]3COP(=O)(O)O[C@H]3[C@H]2O)c(=O)[nH]1` [cGMP, guanosine-3',5'-monophosphate, reference compound], the chromatographic logP in the series “physchem” is 0.77. Moreover, in series [12], the “log KW” value is listed as 0.85.
